PubChem BioAssay (NCI)
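Exposure lasted 48 hours, with cells grown in 96-well plates and compounds tested at five concentrations. At the GI50, growth is halved. TGI: total growth inhibition.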

What was measured:
Assay in all cases: inhibition of tumour cell growth, NCI panel, 48 h; in the data active = GI50 below about 0.43 µM; inactive = the rest
PC-3 prostate = system: PC-3 prostate
SF-268 CNS = system: SF-268 CNS
NCI-H23 lung = system: NCI-H23 lung
HCT-15 colon = system: HCT-15 colon
DU-145 prostate = system: DU-145 prostate
MALME-3M melanoma = system: MALME-3M melanoma
SNB-19 CNS = system: SNB-19 CNS
LOX IMVI melanoma = system: LOX IMVI melanoma
HOP-62 NSCLC = system: HOP-62 NSCLC
SK-MEL-2 melanoma = system: SK-MEL-2 melanoma
MDA-MB-231 breast = system: MDA-MB-231 breast
SK-MEL-5 melanoma = system: SK-MEL-5 melanoma
COLO 205 colon = system: COLO 205 colon
SR leukemia = system: SR leukemia
OVCAR-8 ovarian = system: OVCAR-8 ovarian
HCT-116 colon = system: HCT-116 colon
UACC-62 melanoma = system: UACC-62 melanoma
ACHN renal = system: ACHN renal
SN12C renal = system: SN12C renal
786-0 renal = system: 786-0 renal
SF-539 CNS = system: SF-539 CNS
OVCAR-3 ovarian = system: OVCAR-3 ovarian
SW-620 colon = system: SW-620 colon
HCC-2998 colon = system: HCC-2998 colon
SK-OV-3 ovarian = system: SK-OV-3 ovarian
NCI-H460 lung = system: NCI-H460 lung
T-47D breast = system: T-47D breast
UO-31 renal = system: UO-31 renal
BT-549 breast = system: BT-549 breast
SK-MEL-28 melanoma = system: SK-MEL-28 melanoma
NCI-H226 lung = system: NCI-H226 lung
K-562 leukemia = system: K-562 leukemia
RPMI-8226 leukemia = system: RPMI-8226 leukemia
MOLT-4 leukemia = system: MOLT-4 leukemia
OVCAR-4 ovarian = system: OVCAR-4 ovarian
M14 melanoma = system: M14 melanoma
OVCAR-5 ovarian = system: OVCAR-5 ovarian
A498 renal = system: A498 renal
U251 CNS = system: U251 CNS
NCI/ADR-RES ovarian = system: NCI/ADR-RES ovarian
CAKI-1 renal = system: CAKI-1 renal
HS 578T breast = system: HS 578T breast
SF-295 CNS = system: SF-295 CNS
A549 NSCLC = system: A549 NSCLC
MCF7 breast = system: MCF7 breast
HL-60(TB) leukemia = system: HL-60(TB) leukemia
SNB-75 CNS = system: SNB-75 CNS
RXF 393 renal = system: RXF 393 renal
MDA-MB-435 = system: MDA-MB-435
UACC-257 melanoma = system: UACC-257 melanoma
CCRF-CEM leukemia = system: CCRF-CEM leukemia
KM12 colon = system: KM12 colon
HT29 colon = system: HT29 colon
NCI-H522 lung = system: NCI-H522 lung
IGROV1 ovarian = system: IGROV1 ovarian

O=C1OCc2c1cc(F)cc2[N+](=O)[O-]
69.6 µM: TGI (MALME-3M melanoma)
> 100 µM: TGI (PC-3 prostate) | TGI (SF-268 CNS) | TGI (NCI-H23 lung) | TGI (HCT-15 colon) | TGI (DU-145 prostate) | TGI (SNB-19 CNS) | TGI (LOX IMVI melanoma) | TGI (HOP-62 NSCLC) | TGI (SK-MEL-2 melanoma) | TGI (MDA-MB-231 breast) | TGI (SK-MEL-5 melanoma) | TGI (COLO 205 colon) | TGI (SR leukemia) | TGI (OVCAR-8 ovarian) | TGI (HCT-116 colon) | TGI (UACC-62 melanoma) | TGI (ACHN renal) | TGI (SN12C renal) | TGI (786-0 renal) | TGI (SF-539 CNS) | TGI (OVCAR-3 ovarian) | TGI (SW-620 colon) | TGI (HCC-2998 colon) | TGI (SK-OV-3 ovarian) | TGI (NCI-H460 lung) | TGI (T-47D breast) | TGI (UO-31 renal) | TGI (BT-549 breast) | TGI (SK-MEL-28 melanoma) | TGI (NCI-H226 lung) | TGI (K-562 leukemia) | TGI (RPMI-8226 leukemia) | TGI (MOLT-4 leukemia) | TGI (OVCAR-4 ovarian) | TGI (M14 melanoma) | TGI (OVCAR-5 ovarian) | TGI (A498 renal) | TGI (U251 CNS) | TGI (NCI/ADR-RES ovarian) | TGI (CAKI-1 renal) | TGI (HS 578T breast) | TGI (SF-295 CNS) | TGI (A549 NSCLC) | TGI (MCF7 breast) | TGI (HL-60(TB) leukemia) | TGI (SNB-75 CNS) | TGI (RXF 393 renal) | TGI (MDA-MB-435) | TGI (UACC-257 melanoma) | TGI (CCRF-CEM leukemia) | TGI (KM12 colon) | TGI (HT29 colon) | TGI (NCI-H522 lung) | TGI (IGROV1 ovarian)
inactive: GI50 (PC-3 prostate) > 100 µM | GI50 (SF-268 CNS) > 100 µM | GI50 (NCI-H23 lung) > 100 µM | GI50 (HCT-15 colon) > 100 µM | GI50 (DU-145 prostate) > 100 µM | GI50 (MALME-3M melanoma) 26.8 µM | GI50 (SNB-19 CNS) > 100 µM | GI50 (LOX IMVI melanoma) > 100 µM | GI50 (HOP-62 NSCLC) > 100 µM | GI50 (SK-MEL-2 melanoma) > 100 µM | GI50 (MDA-MB-231 breast) > 100 µM | GI50 (SK-MEL-5 melanoma) > 100 µM | GI50 (COLO 205 colon) 47.6 µM | GI50 (SR leukemia) > 100 µM | GI50 (OVCAR-8 ovarian) > 100 µM | GI50 (HCT-116 colon) > 100 µM | GI50 (UACC-62 melanoma) > 100 µM | GI50 (ACHN renal) > 100 µM | GI50 (SN12C renal) > 100 µM | GI50 (786-0 renal) > 100 µM | GI50 (SF-539 CNS) > 100 µM | GI50 (OVCAR-3 ovarian) > 100 µM | GI50 (SW-620 colon) > 100 µM | GI50 (HCC-2998 colon) > 100 µM | GI50 (SK-OV-3 ovarian) > 100 µM | GI50 (NCI-H460 lung) > 100 µM | GI50 (T-47D breast) > 100 µM | GI50 (UO-31 renal) > 100 µM | GI50 (BT-549 breast) > 100 µM | GI50 (SK-MEL-28 melanoma) > 100 µM | GI50 (NCI-H226 lung) > 100 µM | GI50 (K-562 leukemia) > 100 µM | GI50 (RPMI-8226 leukemia) > 100 µM | GI50 (MOLT-4 leukemia) > 100 µM | GI50 (OVCAR-4 ovarian) > 100 µM | GI50 (M14 melanoma) > 100 µM | GI50 (OVCAR-5 ovarian) > 100 µM | GI50 (A498 renal) > 100 µM | GI50 (U251 CNS) > 100 µM | GI50 (NCI/ADR-RES ovarian) > 100 µM | GI50 (CAKI-1 renal) > 100 µM | GI50 (HS 578T breast) > 100 µM | GI50 (SF-295 CNS) > 100 µM | GI50 (A549 NSCLC) > 100 µM | GI50 (MCF7 breast) > 100 µM | GI50 (HL-60(TB) leukemia) > 100 µM | GI50 (SNB-75 CNS) > 100 µM | GI50 (RXF 393 renal) > 100 µM | GI50 (MDA-MB-435) > 100 µM | GI50 (UACC-257 melanoma) > 100 µM | GI50 (CCRF-CEM leukemia) > 100 µM | GI50 (KM12 colon) > 100 µM | GI50 (HT29 colon) > 100 µM | GI50 (NCI-H522 lung) > 100 µM | GI50 (IGROV1 ovarian) > 100 µM
